Assay results as given in patent publication US20150045328A1, “DISUBSTITUTED ARYL OXY DERIVATIVES AS SPHINGOSINE-1 PHOSPHATE RECEPTORS MODULATORS” (Allergan, Inc., priority 2013, published 2015).

What follows are compounds tested against T1, human S1P1 receptor (Homo sapiens, UniProt P21453) (assay: GTP γ35S binding assay for S1P1 activity). Conditions: activity potency, S1P1 receptor from GTP γ35S binding; membranes of cells stably expressing the S1P1 receptor.
T1 construct: expressed in transfected cells; membranes used
Assay type: biochemical
Method: Compounds were synthesized and tested for S1P1 activity using the GTP γ^35S binding assay. These compounds may be assessed for their ability to activate or block activation of the human S1P1 receptor in cells stably expressing the S1P1 receptor.
GTP γ^35S binding was measured in the medium containing (mM) HEPES 25, pH 7.4, MgCl2 10, NaCl 100, dithiothreitol 0.5, digitonin 0.003%, 0.2 nM GTP γ^35S, and 5 μg membrane protein in a volume of 150 μl. Test compounds were included in the concentration range from 0.08 to 5,000 nM unless indicated otherwise. Membranes were incubated with 100 μM 5′-adenylylimidodiphosphate for 30 min, and subsequently with 10 μM GDP for 10 min on ice. Drug solutions and membrane were mixed, and then reactions were initiated by adding GTP γ^35S and continued for 30 min at 25° C. Reaction mixtures were filtered over Whatman GF/B filters under vacuum, and washed three times with 3 mL of ice-cold buffer (HEPES 25, pH7.4, MgCl2 10 and NaCl 100). Filters were dried and mixed with scintillant, and counted for ^35S activity using a β-counter. Agonist-induced GTP γ^35S binding was obtained by subtracting that in the absence of agonist. Binding data were analyzed using a non-linear regression method. In case of antagonist assay, the reaction mixture contained 10 nM […] in the presence of test antagonist at concentrations ranging from 0.08 to 5000 nM.

T1 sequence (P21453 whole entry): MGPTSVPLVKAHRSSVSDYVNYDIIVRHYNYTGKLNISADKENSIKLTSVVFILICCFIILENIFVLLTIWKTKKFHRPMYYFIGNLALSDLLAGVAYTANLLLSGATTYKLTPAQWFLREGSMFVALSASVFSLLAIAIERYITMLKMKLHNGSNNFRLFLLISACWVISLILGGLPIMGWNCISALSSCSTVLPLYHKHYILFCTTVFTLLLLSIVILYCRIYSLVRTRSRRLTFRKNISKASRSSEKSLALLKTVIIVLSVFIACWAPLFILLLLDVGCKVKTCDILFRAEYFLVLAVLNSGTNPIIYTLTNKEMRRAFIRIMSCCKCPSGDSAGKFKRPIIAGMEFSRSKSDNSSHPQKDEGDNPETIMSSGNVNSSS

Row | Structure (SMILES) | EC50
1 | CCCCCC(CCCOc1ccc(CNCCCP(=O)(O)O)cc1)Cc1ccc(C)c(C)c1 (centres unmarked) [Compound 1, {3-[(4-{[4-(3,4-Dimethylbenzyl)nonyl]oxy}benzyl)amino]propyl}phosphonic acid] | 5.18 nM
2 | CCCCC(CCCOc1ccc(CNCCCP(=O)(O)O)cc1)Cc1ccc(C)c(C)c1 (centres unmarked) [Compound 2, {3-[(4-{[4-(3,4-Dimethylbenzyl)octyl]oxy}benzyl)amino]propyl}phosphonic acid] | 12.9 nM
3 | CCCCC(CCCOc1ccc(CNCCC(=O)O)cc1)Cc1ccc(C)c(C)c1 (centres unmarked) [Compound 3, 3-[(4-{[4-(3,4-Dimethylbenzyl)octyl]oxy}benzyl)amino]propanoic acid] | 5 nM
4 | CCCC(CCCOc1ccc(CNCCCP(=O)(O)O)cc1)Cc1ccc(C)c(C)c1 (centres unmarked) [Compound 4, {3-[(4-{[4-(3,4-Dimethylbenzyl)heptyl]oxy}benzyl)amino]propyl}phosphonic acid] | 120 nM
5 | CCCC(CCCOc1ccc(CNCCC(=O)O)cc1)Cc1ccc(C)c(C)c1 (centres unmarked) [Compound 5, 3-[(4-{[4-(3,4-Dimethylbenzyl)heptyl]oxy}benzyl)amino]propanoic acid] | 4.68 nM
6 | CCC(CCCOc1ccc(CNCCCP(=O)(O)O)cc1)Cc1ccc(C)c(C)c1 (centres unmarked) [Compound 6, {3-[(4-{[4-(3,4-Dimethylbenzyl)hexyl]oxy}benzyl)amino]propyl}phosphonic acid] | 21.4 nM
7 | CCC(CCCOc1ccc(CNCCC(=O)O)cc1)Cc1ccc(C)c(C)c1 (centres unmarked) [Compound 7, 3-[(4-{[4-(3,4-Dimethylbenzyl)hexyl]oxy}benzyl)amino]propanoic acid] | 11.4 nM
8 | CCCCCC(CCCOc1ccc(CNCCC(=O)O)cc1)Cc1ccc(C)c(C)c1 (centres unmarked) [Compound 10, 3-[(4-{[4-(3,4-Dimethylbenzyl)nonyl]oxy}benzyl)amino]propanoic acid] | 7.46 nM
9 | CCCCC(CCCOc1c(C)cc(CNCCCP(=O)(O)O)cc1C)Cc1ccc(C)c(C)c1 (centres unmarked) [Compound 11, {3-[(4-{[4-(3,4-Dimethylbenzyl)octyl]oxy}-3,5-dimethylbenzyl)amino]propyl}phosphonic acid] | 18.9 nM
10 | CCCCC(CCCOc1c(C)cc(CNCCC(=O)O)cc1C)Cc1ccc(C)c(C)c1 (centres unmarked) [Compound 12, 3-[(4-{[4-(3,4-dimethylbenzyl)octyl]oxy}-3,5-dimethylbenzyl)amino]propanoic acid] | 9.84 nM
11 | CCCCC(CCCOc1ccc(CNCCCP(=O)(O)O)cc1C)Cc1ccc(C)c(C)c1 (centres unmarked) [Compound 13, {3-[(4-{[4-(3,4-Dimethylbenzyl)octyl]oxy}-3-methylbenzyl)amino]propyl}phosphonic acid] | 6.54 nM
12 | CCCCC(CCCOc1ccc(CNCCC(=O)O)cc1C)Cc1ccc(C)c(C)c1 (centres unmarked) [Compound 14, 3-[(4-{[4-(3,4-Dimethylbenzyl)octyl]oxy}-3-methylbenzyl)amino]propanoic acid] | 6.02 nM
13 | CCCCC(CCCOc1ccc(CNCCCP(=O)(O)O)cc1Br)Cc1ccc(C)c(C)c1 (centres unmarked) [Compound 15, {3-[(3-Bromo-4-{[4-(3,4-dimethylbenzyl)octyl]oxy}benzyl)amino]propyl}phosphonic acid] | 2.29 nM

Now from value to compound:

Row | EC50 | Structure (SMILES)
14 | 4.19 nM | CCCCC(CCCOc1ccc(CNCCC(=O)O)cc1Br)Cc1ccc(C)c(C)c1 (centres unmarked) [Compound 16, 3-[(3-Bromo-4-{[4-(3,4-dimethylbenzyl)octyl]oxy}benzyl)amino]propanoic acid]
15 | 1.34 nM | CCCCC(CCCOc1ccc(CNCCCP(=O)(O)O)cc1Cl)Cc1ccc(C)c(C)c1 (centres unmarked) [Compound 17, {3-[(3-Chloro-4-{[4-(3,4-dimethylbenzyl)octyl]oxy}benzyl)amino]propyl}phosphonic acid]
16 | 1.25 nM | CCCCC(CCCOc1ccc(CNCCC(=O)O)cc1Cl)Cc1ccc(C)c(C)c1 (centres unmarked) [Compound 18, 3-[(3-Chloro-4-{[4-(3,4-dimethylbenzyl)octyl]oxy}benzyl)amino]propanoic acid]
17 | 0.33 nM | CCCCC(CCCOc1c(F)cc(CNCCCP(=O)(O)O)cc1OC)Cc1ccc(C)c(C)c1 (centres unmarked) [Compound 19, {3-[(4-{[4-(3,4-dimethylbenzyl)octyl]oxy}-3-fluoro-5-methoxybenzyl)amino]propyl}phosphonic acid]
18 | 2.7 nM | CCCCC(CCCOc1c(F)cc(CNCCC(=O)O)cc1OC)Cc1ccc(C)c(C)c1 (centres unmarked) [Compound 20, 3-[(4-{[4-(3,4-Dimethylbenzyl)octyl]oxy}-3-fluoro-5-methoxybenzyl)amino]propanoic acid]
19 | 2.35 nM | CCCCC(CCCOc1ccc(CNCCCP(=O)(O)O)cc1F)Cc1ccc(C)c(C)c1 (centres unmarked) [Compound 21, {3-[(4-{[4-(3,4-Dimethylbenzyl)octyl]oxy}-3-fluorobenzyl)amino]propyl}phosphonic acid]
20 | 15.7 nM | CCCCC(CCCOc1ccc(CNCCC(=O)O)cc1F)Cc1ccc(C)c(C)c1 (centres unmarked) [Compound 22, 3-[(4-{[4-(3,4-Dimethylbenzyl)octyl]oxy}-3-fluorobenzyl)amino]propanoic acid]
21 | 11.9 nM | CCCCCC(CCCOc1c(C)cc(CNCCCP(=O)(O)O)cc1C)Cc1ccc(C)c(C)c1 (centres unmarked) [Compound 23, {3-[(4-{[4-(3,4-Dimethylbenzyl)nonyl]oxy}-3,5-dimethylbenzyl)amino]propyl}phosphonic acid]
22 | 4.83 nM | CCCCCC(CCCOc1ccc(CNCCCP(=O)(O)O)cc1Cl)Cc1ccc(C)c(C)c1 (centres unmarked) [Compound 25, {3-[(3-Chloro-4-{[4-(3,4-dimethylbenzyl)nonyl]oxy}benzyl)amino]propyl}phosphonic acid]
23 | 11.8 nM | CCCCCC(CCCOc1ccc(CNCCC(=O)O)cc1Cl)Cc1ccc(C)c(C)c1 (centres unmarked) [Compound 26, 3-[(3-Chloro-4-{[4-(3,4-dimethylbenzyl)nonyl]oxy}benzyl)amino]propanoic acid]
24 | 10.9 nM | CCCC(CCCOc1ccc(CNCCCP(=O)(O)O)cc1Cl)Cc1ccc(C)c(C)c1 (centres unmarked) [Compound 27, {3-[(3-chloro-4-{[4-(3,4-dimethylbenzyl)heptyl]oxy}benzyl)amino]propyl}phosphonic acid]
25 | 54 nM | CCCC(CCCOc1ccc(CNCCC(=O)O)cc1Cl)Cc1ccc(C)c(C)c1 (centres unmarked) [Compound 28, 3-[(3-Chloro-4-{[4-(3,4-dimethylbenzyl)heptyl]oxy}benzyl)amino]propanoic acid]
26 | 328 nM | CCCC(CCCOc1c(C)cc(CNCCCP(=O)(O)O)cc1C)Cc1ccc(C)c(C)c1 (centres unmarked) [Compound 29, {3-[(4-{[4-(3,4-Dimethylbenzyl)heptyl]oxy}-3,5-dimethylbenzyl)amino]propyl}phosphonic acid]
27 | 27.1 nM | CCCC(CCCOc1c(C)cc(CNCCC(=O)O)cc1C)Cc1ccc(C)c(C)c1 (centres unmarked) [Compound 30, 3-[(4-{[4-(3,4-Dimethylbenzyl)heptyl]oxy}-3,5-dimethylbenzyl)amino]propanoic acid]
28 | 7.89 nM | CCCC(CCCOc1ccc(CNCCCP(=O)(O)O)cc1C)Cc1ccc(C)c(C)c1 (centres unmarked) [Compound 31, {3-[(4-{[4-(3,4-Dimethylbenzyl)heptyl]oxy}-3-methylbenzyl)amino]propyl}phosphonic acid]
29 | 35.2 nM | CCCC(CCCOc1ccc(CNCCC(=O)O)cc1C)Cc1ccc(C)c(C)c1 (centres unmarked) [Compound 32, 3-[(4-{[4-(3,4-Dimethylbenzyl)heptyl]oxy}-3-methylbenzyl)amino]propanoic acid]
